The values that follow come from patent publication US12123019B2, “Uses of kinase inhibitors for inducing and maintaining pluripotency” (Whitehead Institute for Biomedical Research, priority 2014, dated 2024).

The assay concerns OCT4-ΔPE-GFP-negative (primed) human ESCs. In words: Removal of latent OCT4-ΔPE-GFP-negative cells during 2i/L/DOX induction. The format is cell-based. As to conditions: additional treatment with 0.1 μM PD173074 and 5 μM SB431542 upon addition of 2i/L/DOX. An excerpt:
VSVG coated lentiviruses were generated in HEK-293 cells as described previously (Brambrink et al., 2008; Soldner et al., 2009; Soldner et al., 2011). Briefly, culture medium was changed 12 hr post-transfection and virus-containing supernatant was collected 48 to 72 hr post transfection. Viral supernatant was filtered through a […] filter. Virus-containing supernatants of the 2 reprogramming viruses (FUW-tetO-lox-hKLF2 and FUW-tetO-lox-hNANOG) were pooled and supplemented with the FUW-lox-M2rtTA virus and an equal volume of fresh culture medium. 1×10^6 human ESCs were seeded 24 hr before transduction in T75 flasks on matrigel in mTesr1 medium (STEMCELL Technologies). Two consecutive infections in the presence of […] of polybrene were performed over a period of 24 hr. Culture medium was changed 12 hr after the last infection. Five days after transduction, human ESCs were passaged using 0.25% trypsin/EDTA solution (Invitrogen) and re-plated on mitomycin C inactivated mouse embryonic fibroblast (MEF) feeder layers in conventional human ESC medium. To induce conversion to the naïve state, human ESCs were trypsinized and seeded at a density of 1×10^5 cells per 6 individual well on a MEF feeder layer in presence of ROCK inhibitor Y-27632. […]

Molecules are shown by their SMILES.

Consider `NC(=O)c1ccc(-c2nc(-c3ccc4c(c3)OCO4)c(-c3ccccn3)[nH]2)cc1` [SB431542], for which the “latent OCT4-ΔPE-GFP-negative cells” value is “removed almost entirely”.
